Results taken from patent EP2301627A1, “Novel antimalarial 3-azabicyclo[3.2.2]nonane derivatives” (University of Graz, priority 2009, dated 2011).
“And” between values parts separate entries of the source, which are not always exact repeats. Equal entries are not always repeated. Where two headings read alike, the source gives them in different places.

How the values were obtained:
[1] = tested on: K1 strain of P. falciparum (resistant to chloroquine and pyrimethamine); experiment: in vitro screening against Plasmodium falciparum, [3H]-hypoxanthine incorporation assay; assay type: cell-based; conditions: read-out: IC50 P.falc.
Procedure: Antiplasmodial activity is determined using the K1 strain of P. falciparum (resistant to chloroquine and pyrimethamine). A modification of the [^3H]-hypoxanthine incorporation assay is used [Matile H, Pink JRL. in: Lefkovits I. and Pernis B. (Eds.). Immunological Methods, Academic Press, San Diego, 1990, 221-234.]. Briefly, infected human red blood cells in RPMI 1640 medium with 5% Albumax are exposed to serial drug dilutions in microtiter plates for 48 hours. Viability is assessed by measuring the incorporation of [^3H]-hypoxanthine by liquid scintillation counting 24 hours after the addition of the radiolabel. The counts are expressed as percentage of the control cultures, sigmoidal inhibition curves are drawn and IC50 values calculated.

[2] = tested on: L-6 cells; experiment: Cytotoxicity, same Alamar Blue assay with L-6 cells; assay type: cell-based; conditions: Rattus norvegicus
Procedure: Serial drug dilutions are added to the wells. Then 50 µl of trypanosome suspension (T. b. rhodesiense STIB 900) is added to each well and the plate incubated at 37°C under a 5% CO2 atmosphere for 72 hours. Alamar Blue (10 µl) is then added to each well and incubation continued for a further 2-4 hours. […] Fluorescence development is expressed as percentage of the control, and IC50 values determined. Cytotoxicity is assessed using the same assay and L-6 cells.

[3] = tested on: P. berghei ANKA strain; experiment: in vivo screening against Plasmodium berghei in mice; conditions: for MSD P. berghei: mean survival day; for Activity %: percent reduction of parasitemia vs control
Procedure: • Method of infection of animals: • Male mice (Fü albino; specific pathogen free) weighing 20± 2g are infected intravenously with 2x10^7 P. berghei ANKA strain-infected erythrocytes from donor mice on day 0 of the experiment. […] Parasitemia is determined microscopically by counting 1000 red blood cells. • For low parasitemias (<1%) 2000 rbc's have to be counted. The difference between the mean value for the control group (taken as 100%) and that for each experimental group is calculated and expressed as percent reduction (=activity). • The mean survival day (MSD, in days) is recorded as well as observations concerning side effects of the drug.

[4] = tested on: T. b. rhodesiense STIB 900; experiment: in vitro screening against Trypanosoma brucei rhodesiense, Alamar Blue assay; assay type: cell-based; conditions: read-out: IC50 T.rho.
Procedure: Minimum Essential Medium (50 µl) supplemented according to Baltz et al. [Baltz T, Baltz D, Giroud C, Crockett J. EMBO J., 1985, 4: 1273-1277] with 2-mercaptoethanol and 15% heat-inactivated horse serum is added to each well of a 96-well microtiter plate. Serial drug dilutions are added to the wells. Then 50 µl of trypanosome suspension (T. b. rhodesiense STIB 900) is added to each well and the plate incubated at 37°C under a 5% CO2 atmosphere for 72 hours. Alamar Blue (10 µl) is then added to each well and incubation continued for a further 2-4 hours. The plate is then read with a Millipore Cytofluor 2300 using an excitation wavelength of 530 nm and emission wavelength of 590 nm [Räz B, Iten M, Grether-Bühler Y, Kaminsky R, Brun R. Acta Trop., 1997, 68: 139-147]. Fluorescence development is expressed as percentage of the control, and IC50 values determined. Cytotoxicity is assessed using the same assay and L-6 cells.

[5] = Erythrocyte, K1 strain, infected human red blood cells, 48 hours drug exposure
[6] = L6, L-6 cells, read-out: IC50 Cytox

For `C[C@@H]1CC[C@H]2[C@@H](C)C(=O)O[C@@H]3O[C@@]4(C)CC[C@@H]1[C@]32OO4` [Artemisinin], the IC50 [1, 5] was 0.0064 µM and the IC50 [2, 6] was 450 µM.

In the case of `c1ccc([C@@H]2CC3(N4CCCC4)CNCC2[C@H](c2ccccc2)C3)cc1` (racemic) [Example 1, (6RS,9RS)-(±)-6,9-Diphenyl-1-pyrrolidino-3-azabicyclo[3.2.2]nonane], the “MSD P. berghei” value ([3]; ip 4x10mg/kg) is reported as 4 days, the Activity % ([3]; ip 4x10mg/kg) is reported as 25.06% and the “MSD P. berghei” value ([3]; ip 4x20mg/kg) is reported as 10 days. The Activity % ([3]; ip 4x20mg/kg) was 60.11%, the “MSD P. berghei” value ([3]; ip 4x50mg/kg) was 12.3 days and 15 days and the Activity % ([3]; ip 4x50mg/kg) was 94.32% and 94.77%. The “MSD P. berghei” value ([3]; po 1x100mg/kg) was 12 days, the Activity % ([3]; po 1x100mg/kg) was 70.52% and the “side effects of the drug” value ([3]; po 1x200mg/kg) was “toxic”. For the same compound, the “MSD P. berghei” value ([3]; po 1x200mg/kg) was 16 days, the Activity % ([3]; po 1x200mg/kg) was 66.13% and the “MSD P. berghei” value ([3]; po 4x100mg/kg) was 18.6 days. It also gave an Activity % ([3]; po 4x100mg/kg) of 97.7%, an IC50 ([4]; STIB 900, 72 hours incubation) of 1 µM and an IC50 [1, 5] of 0.095 µM. The IC50 [2, 6] was 72.9 µM.

With `N=C(N)c1ccc(OCCCCCOc2ccc(C(=N)N)cc2)cc1` [Pentamidine] the IC50 ([4]; STIB 900, 72 hours incubation) was 0.0075 µM and the IC50 [2, 6] was 4720 µM.

`CCN(CC)CCCC(C)Nc1ccnc2cc(Cl)ccc12` (stereo not shown) [Chloroquine, reference compound] was tested, and the “MSD P. berghei” value ([3]; ip 4x10mg/kg) was 20 days, the Activity % ([3]; ip 4x10mg/kg) was 99.6% and the “MSD P. berghei” value ([3]; po 4x10mg/kg) was 20 days. The Activity % ([3]; po 4x10mg/kg) was 99.6%, the IC50 ([1]; K1, Erythrocyte, 48 h) was 0.12 µM and the IC50 ([2]; L6, read-out: IC50 Cytox) was 188 µM.

`Nc1nc(N)nc(Nc2ccc([As]3SCC(CO)S3)cc2)n1` (stereo not shown) [Melarsoprol] gave an IC50 ([4]; 72 h) of 0.0039 µM and an IC50 ([2]; L6, read-out: IC50 Cytox) of 7.78 µM.
